Tests used:
[1] = tested on: SARS-CoV Frankfurt-1 strain; assay type: cell-based
[2] = tested on: SARS-CoV Frankfurt-1 strain; assay type: cell-based; remark: listed apart in the source
Vero E6 cells = settings: cited from earlier work
[3] = tested on: SARS-CoV Frankfurt-1 strain; settings: cited from earlier work
[4] = tested on: SARS-CoV Frankfurt-1 strain; settings: cited from earlier work; remark: listed apart in the source

With `OC[C@H]1O[C@@H](n2cnc3c(Cl)ncnc32)[C@H](O)[C@@H]1O` [Compound 1] the “concentration required to reduce the virus yield to one-hundredth of the control” value [1] was “approximately 20 μM”.

In the case of `OC[C@H]1O[C@@H](n2cnc3c(Cl)ncnc32)C[C@@H]1O` [Compound 6], the “anti-SARS-CoV activity (in words)” value [2] is reported as “weak antiviral activity”.

For `OC[C@@H]1C[C@@H](O)[C@H](n2cnc3c(Cl)ncnc32)O1` [Compound 7], the “anti-SARS-CoV activity (in words)” value [2] was “weak antiviral activity”.

In the case of `OCC1CC(n2cnc3c(Cl)ncnc32)C1CO` (stereo not shown) [Compound 10], the “anti-SARS-CoV activity (in words)” value [2] is reported as “almost no activity”.

In the case of `NC(=O)c1ncn([C@@H]2O[C@H](CO)[C@@H](O)[C@H]2O)c1O` [Mizoribine], the CC50 (Vero E6 cells) is given as greater than 700 µM, the “concentration required to decrease the virus yield to one-tenth of the control” value [3] is given as “approximately 35 μM” and the “Antiviral index (50% toxic dose divided by 50% inhibitory dose)” value [4] is given as greater than 52.

In the case of `NC(=O)c1ncn([C@@H]2O[C@H](CO)[C@@H](O)[C@H]2O)n1` [Ribavirin], the CC50 (Vero E6 cells) is given as greater than 850 µM, the “concentration required to decrease the virus yield to one-tenth of the control” value [3] is given as roughly 200 µM and the “Antiviral index (50% toxic dose divided by 50% inhibitory dose)” value [4] is given as greater than 10.
